Each structure is given as a SMILES string. Where “and” joins values, the source holds several entries; their conditions need not be identical. Identical values can stand only once. Inconclusive results and toxic doses are left out.

The test deals with CD2F1 mice, L1210 leukemia ip, survival T/C. Briefly: NCI In Vivo Anticancer Drug Screen. Data for tumor model L1210 Leukemia (intraperitoneal) in CD2F1 (CDF1) mice. Conditions: higher = longer survival. An outline of the steps: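 Implant tumor; dose compound or vehicle; measure endpoint in both groups; report treated divided by control.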
Setting [1] is: endpoint: mean survival time, dose: 50.0 mg/kg/injection, schedule: Q01DX009 (ip), vehicle: Klucel (hydroxypropylcellulose) (HPC).
Where [2] appears, read: endpoint: mean survival time, dose: 100.0 mg/kg/injection, schedule: Q01DX009 (ip), vehicle: Klucel (hydroxypropylcellulose) (HPC).
Where [3] appears, read: endpoint: mean survival time, dose: 100.0 mg/kg/injection, schedule: Q01DX009 (ip), vehicle: saline.
[4] abbreviates: endpoint: mean survival time, dose: 200.0 mg/kg/injection, schedule: Q01DX009 (ip), vehicle: Klucel (hydroxypropylcellulose) (HPC).

As for `O=CC(NC(=O)N(CCCl)N=O)C(O)C(O)C(O)CO` (configuration not stated), the T/C was 117 % of control (endpoint: mean survival time, dose: 0.94 mg/kg/injection, schedule: Q01DX009 (ip), vehicle: citric acid); 162 % of control (endpoint: mean survival time, dose: 1.88 mg/kg/injection, schedule: Q01DX009 (ip), vehicle: citric acid); 182 % of control and 242 % of control (endpoint: mean survival time, dose: 3.75 mg/kg/injection, schedule: Q01DX009 (ip), vehicle: citric acid); 186 % of control (endpoint: mean survival time, dose: 3.75 mg/kg/injection, schedule: Q01DX009 (ip), vehicle: saline); 406 % of control (endpoint: mean survival time, dose: 3.8 mg/kg/injection, schedule: Q01DX009 (ip), vehicle: water); 173 % of control and 250 % of control (endpoint: mean survival time, dose: 5.0 mg/kg/injection, schedule: Q04DX002 (ip), vehicle: saline). The T/C by setting is: (endpoint: mean survival time, dose: 7.0 mg/kg/injection, schedule: Q01DX001 (ip), vehicle: saline) 115 % of control; (endpoint: mean survival time, dose: 7.5 mg/kg/injection, schedule: Q01DX009 (ip), vehicle: citric acid) 97 % of control; (endpoint: mean survival time, dose: 7.5 mg/kg/injection, schedule: Q01DX009 (ip), vehicle: saline) 223 % of control; (endpoint: mean survival time, dose: 7.5 mg/kg/injection, schedule: Q01DX009 (ip), vehicle: water) 154 % of control; (endpoint: mean survival time, dose: 8.0 mg/kg/injection, schedule: Q01DX001 (ip), vehicle: water) 267 % of control; (endpoint: mean survival time, dose: 10.0 mg/kg/injection, schedule: Q04DX002 (ip), vehicle: saline) 276 % of control and 289 % of control. In addition, the T/C (endpoint: mean survival time, dose: 11.0 mg/kg/injection, schedule: Q01DX001 (ip), vehicle: saline) was 151 % of control and 160 % of control; the T/C (endpoint: mean survival time, dose: 12.5 mg/kg/injection, schedule: Q01DX001 (ip), vehicle: saline) was 158 % of control; the T/C (endpoint: mean survival time, dose: 15.0 mg/kg/injection, schedule: Q01DX009 (ip), vehicle: saline) was 120 % of control; the T/C (endpoint: mean survival time, dose: 15.0 mg/kg/injection, schedule: Q01DX009 (ip), vehicle: water) is 93 % of control; the T/C (endpoint: mean survival time, dose: 16.0 mg/kg/injection, schedule: Q01DX001 (ip), vehicle: saline) was 336 % of control [middle of 4 runs]; the T/C (endpoint: mean survival time, dose: 16.0 mg/kg/injection, schedule: Q01DX001 (ip), vehicle: water) is 369 % of control. Further, the T/C is, setting by setting: (endpoint: mean survival time, dose: 20.0 mg/kg/injection, schedule: Q01DX001 (ip), vehicle: saline) 688 % of control; (endpoint: mean survival time, dose: 20.0 mg/kg/injection, schedule: Q04DX002 (ip), vehicle: saline) 331 % of control and 335 % of control; (endpoint: mean survival time, dose: 25.0 mg/kg/injection, schedule: Q01DX001 (ip), vehicle: saline) 535 % of control; (endpoint: mean survival time, dose: 28.0 mg/kg/injection, schedule: Q01DX001 (ip), vehicle: saline) 857 % of control; (endpoint: mean survival time, dose: 32.0 mg/kg/injection, schedule: Q01DX001 (ip), vehicle: water) 372 % of control; (endpoint: mean survival time, dose: 36.0 mg/kg/injection, schedule: Q01DX001 (ip), vehicle: saline) 603 % of control [middle of 4 runs]. The T/C runs as follows: (endpoint: mean survival time, dose: 40.0 mg/kg/injection, schedule: Q04DX002 (ip), vehicle: saline) 92 % of control and 101 % of control; (endpoint: mean survival time, dose: 50.0 mg/kg/injection, schedule: Q01DX001 (ip), vehicle: saline) 202 % of control; (endpoint: mean survival time, dose: 54.0 mg/kg/injection, schedule: Q01DX001 (ip), vehicle: saline) 300 % of control and 548 % of control; (endpoint: median survival time, dose: 15.0 mg/kg/injection, schedule: Q01DX001 (ip), vehicle: saline) 152 % of control; (endpoint: median survival time, dose: 25.0 mg/kg/injection, schedule: Q01DX001 (ip), vehicle: saline) 181 % of control; (endpoint: median survival time, dose: 42.0 mg/kg/injection, schedule: Q01DX001 (ip), vehicle: saline) 406 % of control.

Take `OCC(O)C(O)C(O)C(O)C(O)CO` (configuration not stated): the T/C was 98 % of control under setting [1]; 102 % of control under setting [2]; 98 % of control under setting [3]; 100 % of control (endpoint: mean survival time, dose: 100.0 mg/kg/injection, schedule: Q04DX002 (ip), vehicle: saline); 98 % of control under setting [4]; 91 % of control (endpoint: mean survival time, dose: 200.0 mg/kg/injection, schedule: Q01DX009 (ip), vehicle: saline). Moreover, the T/C is 107 % of control (endpoint: mean survival time, dose: 200.0 mg/kg/injection, schedule: Q04DX002 (ip), vehicle: saline); 102 % of control (endpoint: mean survival time, dose: 400.0 mg/kg/injection, schedule: Q01DX009 (ip), vehicle: saline); 96 % of control (endpoint: mean survival time, dose: 400.0 mg/kg/injection, schedule: Q04DX002 (ip), vehicle: saline).

For `CC(=O)N(C(C)=O)c1ccccc1`, the T/C is 97 % of control (endpoint: mean survival time, dose: 100.0 mg/kg/injection, schedule: Q04DX003 (ip), vehicle: saline with Tween-80); 97 % of control (endpoint: mean survival time, dose: 200.0 mg/kg/injection, schedule: Q04DX003 (ip), vehicle: saline with Tween-80); 103 % of control (endpoint: mean survival time, dose: 400.0 mg/kg/injection, schedule: Q04DX003 (ip), vehicle: saline with Tween-80).

In the case of `O=P(Oc1ccccc1)(Oc1ccccc1)C(Nc1ccccc1)c1cccnc1` (configuration not stated), the T/C reads like this: (endpoint: mean survival time, dose: 50.0 mg/kg/injection, schedule: Q01DX009 (ip), vehicle: saline with Tween-80) 102 % of control; (endpoint: mean survival time, dose: 100.0 mg/kg/injection, schedule: Q01DX009 (ip), vehicle: saline with Tween-80) 97 % of control; (endpoint: mean survival time, dose: 200.0 mg/kg/injection, schedule: Q01DX009 (ip), vehicle: saline with Tween-80) 94 % of control.

Turning to `CN(C)c1ccc(NS(=O)(=O)c2ccccc2)cc1`, the T/C by setting is: (endpoint: mean survival time, dose: 100.0 mg/kg/injection, schedule: Q01DX001 (ip), vehicle: saline with Tween-80) 103 % of control; (endpoint: mean survival time, dose: 200.0 mg/kg/injection, schedule: Q01DX001 (ip), vehicle: saline with Tween-80) 98 % of control; (endpoint: mean survival time, dose: 400.0 mg/kg/injection, schedule: Q01DX001 (ip), vehicle: saline with Tween-80) 97 % of control.

Regarding `CN(Cc1cnc2nc(N)nc(N)c2n1)c1ccc(C(=O)NC(CCC(=O)NCc2ccccc2)C(=O)O)cc1` (configuration not stated), the T/C (endpoint: mean survival time, dose: 5.0 mg/kg/injection, schedule: Q01DX009 (ip), vehicle: sodium bicarbonate) is 108 % of control and the T/C (endpoint: mean survival time, dose: 10.0 mg/kg/injection, schedule: Q01DX009 (ip), vehicle: sodium bicarbonate) is 112 % of control.

For the compound `Cc1cccc(C(=O)NN)c1`, the T/C (endpoint: mean survival time, dose: 75.0 mg/kg/injection, schedule: Q01DX001 (ip), vehicle: saline) is 106 % of control.

Take `CCCCCCCCCCCCCCCC(=O)Nc1ccc(CC)cc1`: the T/C is 103 % of control (endpoint: mean survival time, dose: 100.0 mg/kg/injection, schedule: Q04DX002 (ip), vehicle: saline with Tween-80); 91 % of control (endpoint: mean survival time, dose: 200.0 mg/kg/injection, schedule: Q04DX002 (ip), vehicle: saline with Tween-80); 95 % of control (endpoint: mean survival time, dose: 400.0 mg/kg/injection, schedule: Q04DX002 (ip), vehicle: saline with Tween-80).

As for `N=C(N)SSC(=N)N`, the T/C is 96 % of control (endpoint: mean survival time, dose: 50.0 mg/kg/injection, schedule: Q01DX009 (ip), vehicle: saline) and 100 % of control under setting [3].

In the case of `CC1(OC(=O)c2ccccc2)CC(C)(C)[N+]([O-])=N1` (configuration not stated), the T/C is 96 % of control (endpoint: mean survival time, dose: 25.0 mg/kg/injection, schedule: Q01DX009 (ip), vehicle: Klucel (hydroxypropylcellulose) (HPC)); 96 % of control under setting [1]; 100 % of control under setting [2]; 91 % of control under setting [4].

In the case of `O=NO.O=NO.[NH-]C1CCCCC1[NH-].[Pd+2]` (configuration not stated), the T/C was 92 % of control (endpoint: mean survival time, dose: 3.13 mg/kg/injection, schedule: Q04DX003 (ip), vehicle: dextrose); 93 % of control (endpoint: mean survival time, dose: 6.25 mg/kg/injection, schedule: Q04DX003 (ip), vehicle: dextrose); 95 % of control (endpoint: mean survival time, dose: 12.5 mg/kg/injection, schedule: Q01DX001 (ip), vehicle: dextrose); 98 % of control (endpoint: mean survival time, dose: 12.5 mg/kg/injection, schedule: Q04DX003 (ip), vehicle: dextrose); 94 % of control (endpoint: mean survival time, dose: 25.0 mg/kg/injection, schedule: Q01DX001 (ip), vehicle: dextrose); 91 % of control (endpoint: mean survival time, dose: 50.0 mg/kg/injection, schedule: Q01DX001 (ip), vehicle: dextrose). For the same compound, the T/C is 95 % of control (endpoint: mean survival time, dose: 50.0 mg/kg/injection, schedule: Q04DX003 (ip), vehicle: dextrose); 109 % of control (endpoint: mean survival time, dose: 100.0 mg/kg/injection, schedule: Q01DX001 (ip), vehicle: dextrose); 100 % of control (endpoint: mean survival time, dose: 100.0 mg/kg/injection, schedule: Q04DX003 (ip), vehicle: dextrose).

As for `NNC(=O)c1nc2ccccc2s1`, the T/C by setting is: (endpoint: mean survival time, dose: 37.5 mg/kg/injection, schedule: Q04DX003 (ip), vehicle: saline sonified) 97 % of control; (endpoint: mean survival time, dose: 75.0 mg/kg/injection, schedule: Q04DX003 (ip), vehicle: saline sonified) 92 % of control; (endpoint: mean survival time, dose: 150.0 mg/kg/injection, schedule: Q04DX003 (ip), vehicle: saline sonified) 94 % of control.

The values above are taken from PubChem BioAssay AID256 (DTP/NCI, 2004).
